From PubChem BioAssay (NCI) come the findings set out here.

Common to all, as to test: NCI anticancer screen, dose series, 48 h
The test system of assay [1] is CCRF-CEM leukemia.
Assay [2] has as its system COLO 205 colon.
Assay [3] has as its system HCC-2998 colon.
For assay [4], the system named is HCT-116 colon.
Assay [5] has as its system LOX IMVI melanoma.
For assay [6], the system named is MDA-MB-435.
The test system of assay [7] is RXF 393 renal.
In assay [8] the test system is SK-OV-3 ovarian.

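All cell lines were grown in 96-well plates and treated with compound for 48 hours. TGI: total growth inhibition.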

As to `CC(C)=CCC[C@@H](C)C1=CC(=O)C(C)=C(O)C1=O`, the TGI in assay [1] worked out at 3.9 µM; in assay [2] it was 28.3 µM; in assay [3], 32.9 µM; in assay [4], 11.8 µM; in assay [5], 11.9 µM; in assay [6], 16.9 µM. Also, the TGI in assay [7] came out at 5.92 µM; in assay [8], 31.8 µM.
For the molecule `O=C(CSCC(=O)N/N=C\c1ccccc1F)N/N=C\c1ccccc1F`, the TGI in assay [1], in assay [2], in assay [3], in assay [4], in assay [5] and in assay [6] was more than 100 µM throughout. In addition, the TGI in assay [7] and in assay [8] was more than 100 µM each time.
For `Cc1ccc(N=C2SC(=NN(C)C)SC2=Nc2ccc(C)cc2)cc1`, the TGI in assay [1], in assay [2], in assay [3], in assay [4], in assay [5] and in assay [6] was more than 100 µM in each case. In addition, the TGI in assay [7] and in assay [8] was more than 100 µM throughout.
In the case of `COc1ccc(Cn2c3ccc([N+](=O)[O-])cc3c(=O)n2Cc2ccccn2)cc1`, the TGI in assay [1], in assay [2], in assay [3], in assay [4], in assay [5] and in assay [6] was more than 100 µM each time. The TGI in assay [7] and in assay [8] was more than 100 µM throughout.
Turning to `COc1ccc(-c2nc(-c3cnccn3)n(Cc3ccccc3)n2)cc1`, the TGI in assay [1], in assay [2], in assay [3], in assay [4], in assay [5] and in assay [6] was more than 100 µM in each case. For the same molecule, the TGI in assay [7] and in assay [8] was more than 100 µM in each case.
For `COc1cc(O)cc(O)c1C(=O)CC(Cl)(Cl)Cl`, the TGI in assay [1], in assay [2], in assay [3], in assay [4], in assay [5] and in assay [6] was more than 100 µM in each case. The TGI in assay [7] and in assay [8] was more than 100 µM in each case.
For `S=C(N/N=C(\C(=N/NC(=S)N1CCCCC1)c1ccccn1)c1ccccn1)N1CCCCC1`, the TGI is 57.4 µM in assay [1]; more than 100 µM in assay [2]; more than 100 µM in assay [3]; more than 100 µM in assay [4]; more than 100 µM in assay [5]; more than 100 µM in assay [6]. The TGI in assay [7] is 73.4 µM; in assay [8], more than 100 µM.
Take `Nc1ccccc1OCCCOc1ccccc1N`: the TGI in assay [1], in assay [2], in assay [3], in assay [4], in assay [5] and in assay [6] was more than 100 µM in each case. For the same molecule, the TGI in assay [7] and in assay [8] was more than 100 µM throughout.
As for `CCOC1NC(/N=C/c2ccc(OC)cc2)=C(C#N)C1C#N` (configuration not stated), the TGI in assay [1] was 82.2 µM; in assay [2], more than 100 µM; in assay [3], more than 100 µM; in assay [4] it was more than 100 µM; in assay [5], more than 100 µM; in assay [6] it was more than 100 µM. In addition, the TGI in assay [7] and in assay [8] was more than 100 µM each time.
For the molecule `CCN(CC)c1ccc2cc(C(N)=O)c(=Nc3ccc(F)cc3)oc2c1`, the TGI in assay [1], in assay [2], in assay [3], in assay [4], in assay [5] and in assay [6] was more than 100 µM throughout. Also, the TGI in assay [7] was 92 µM; in assay [8], more than 100 µM.
For the molecule `O=C1C=C(O)c2c(O)ccc(O)c2C1=O`, the TGI in assay [1], in assay [2], in assay [3], in assay [4], in assay [5] and in assay [6] was more than 100 µM each time. In addition, the TGI in assay [7] and in assay [8] was more than 100 µM throughout.
For the molecule `CC(=O)c1[nH]c(Nc2ccc(C)cc2)c(C(=S)Nc2ccccc2)c1N`, the TGI in assay [1] is 62.1 µM; in assay [2], more than 100 µM; in assay [3] it was 56.5 µM; in assay [4], 35.4 µM; in assay [5], 33.3 µM; in assay [6] it was 30.9 µM. For the same molecule, the TGI was 27.9 µM in assay [7] and more than 100 µM in assay [8].
Consider `CN1C=COC1N=C1CCCCC1` (configuration not stated), for which the TGI in assay [1], in assay [2], in assay [3], in assay [4], in assay [5] and in assay [6] was more than 100 µM each time. The TGI in assay [7] and in assay [8] was more than 100 µM each time.
Regarding `CC(C)C1=C(Cc2ccccc2)C(=O)O/C1=C\c1ccc(O)c(Cl)c1`, the TGI was 46.8 µM in assay [1]; 34.6 µM in assay [2]; 28.7 µM in assay [3]; 28.8 µM in assay [4]; 32.3 µM in assay [5]; 30.7 µM in assay [6]. Further, the results for the TGI in assay [7] and in assay [8] were 31.2 µM and 33.7 µM, respectively.
